Laboratory results: patent US9085795B2, “Methods for screening candidate agents for modulating prorenin and renin, assays for detecting prorenin and antibodies” (MOLECULAR INNOVATIONS, INC., priority 2009, dated 2015)
Where “and” joins values, the source holds several entries; their conditions need not be identical. Equal values may be shown once. Read-outs that look alike come from different tables or passages of the source. No end group written: not given here. *: point of attachment. Biotin = O=C1N[C@H]2[C@H](CS[C@H]2CCCCC(=O)*)N1

Experiments:
[1] = target: T1, renin (Homo sapiens, UniProt P00797); experiment: Renin activity assay: cleavage of biotin-[…] by renin, detected with the antibody of the invention on avidin-coated plate; assay type: biochemical; details: Renin at 10 ug/ml, aliskiren at 10X excess molar conc.
T1 construct: Renin is produced by cleavage of the 395 amino acid zymogen prorenin
T1 sequence (P00797 67-406): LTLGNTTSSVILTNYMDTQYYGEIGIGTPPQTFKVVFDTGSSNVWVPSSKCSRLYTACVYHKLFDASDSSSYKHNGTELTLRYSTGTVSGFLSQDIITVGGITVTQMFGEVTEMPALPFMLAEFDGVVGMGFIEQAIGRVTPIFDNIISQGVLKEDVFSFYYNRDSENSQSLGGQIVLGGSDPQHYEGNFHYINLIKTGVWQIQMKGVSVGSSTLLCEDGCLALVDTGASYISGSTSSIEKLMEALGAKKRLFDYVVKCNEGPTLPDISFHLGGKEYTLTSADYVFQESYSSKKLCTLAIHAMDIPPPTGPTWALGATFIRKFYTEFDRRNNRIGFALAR
Procedure: In accordance with the invention, renin was preincubated in the presence and absence of aliskiren, a known renin inhibitor for approximately 2 hours at 37° C. in 50 mM HEPES, 2 mM EDTA, 1% DMA, 0.5% BSA, pH 7.0. This mixture of renin +/−aliskiren was then contacted with biotin-[…] and incubated at 37° C. for approximately eighteen hours. The reaction mixture was then added to an avidin-coated microtiter plate and allowed to adhere thereto for 30 minutes at room temperature and then washed three times with wash buffer, containing 10 mM Tris, 150 mM NaCl, 0.1% BSA and 0.05% Tween. Then 100 μl of the antibody of the invention was added to each well of the microtiter plate and incubated for 30 minutes at room temperature and again washed with wash buffer. Then 100 μl of horse radish peroxidase conjugated goat anti-mouse subclass Fc was added to each well, incubated for 30 minutes at room temperature and washed with wash buffer. Then 100 μl of TMB ONE Solution™, available from Promega Corporation of Madison, Wis., was added to all wells, incubated for five minutes at room temperature. The reaction was stopped with 50 μl 1N H2SO4 and read at 450 nm.

[2] = tested on: monoclonal antibody 4B5-E3; details: peptides bound to avidin coated plates at 1 μg/ml, absorbance at 450 nm
Procedure: Cell supernatants were loaded on an IMMULON™ (Thermo Fisher Scientific Inc., Waltham, Mass.) strip plate coated with prorenin and blocked. […] Strips were then washed three times, and developed with TMB 1 (Kirkegaard & Perry Laboratories, Inc., Gaithersburg, Md.) substrate for 5 minutes; solution was quenched with 1N H2SO4. The IMMULON™ plate was read on a microtiter plate spectrophotometer with a set absorbance at 450 nm. Optical density (OD) measurements higher than 3.0 were considered positive clones.
These four peptides were bound to avidin coated plates at a concentration of 1 μg/ml and purified monoclonal 4B5-E3 binding was determined per the screening procedure described earlier.

Compound | binding of peptide to monoclonal antibody 4B5-E3 [2] | further results
COCCCOc1cc(C[C@@H](C[C@H](N)[C@@H](O)C[C@H](C(=O)NCC(C)(C)C(N)=O)C(C)C)C(C)C)ccc1OC [aliskiren] | – | inhibition of cleavage of the substrate peptide by renin [1]: inhibition of cleavage of the substrate peptide by renin; signal read at 450 nM (uncleaved substrate peptide), renin + inhibitor ([1]; preincubated approximately 2 hours at 37° C., substrate approximately eighteen hours): 3.363 and 3.481 and 3.596 and 3.824 and 3.754 and 3.497
Biotin-ARLGPEW [Peptide 4.6] | does not bind monoclonal | –
Biotin-ARLGPEWS [Peptide 4.5] | binds monoclonal | binding of peptide to monoclonal antibody 4B5-E3 ([2]; listed as ARLGPEWS): bound to the monoclonal antibody
Biotin-ARLGPEWSQ [Peptide 4.4] | binds monoclonal | binding of peptide to monoclonal antibody 4B5-E3 ([2]; listed as ARLGPEWSQ): bound to the monoclonal antibody
Biotin-ARLGPEWSQPMKR [Peptide 4.1] | Biotin-ARLGPEWSQPMKR (binds monoclonal) | –
Biotin-GVDMARLGPEWSQPMKR [Peptide 4] | Biotin-GVDMARLGPEWSQPMKR (binds monoclonal) | binding of peptide to monoclonal antibody 4B5-E3 ([2]; listed as peptide 4): positive result
Biotin-LGPEWSQPMKR [Peptide 4.3] | Biotin-LGPEWSQPMKR (does not bind monoclonal) | –
Biotin-RLGPEWSQPMKR [Peptide 4.2] | Biotin-RLGPEWSQPMKR (binds monoclonal) | –
